Experimental data as given in patent US9696297B2, “Method for preparing an X chromosome inactivated female human neural cell” (SALK INSTITUTE FOR BIOLOGICAL STUDIES, priority 2009, dated 2017).
Entries after “also recorded” stand apart in the source; their conditions may differ.

What was measured:
iPSC-derived neurons = experiment: Whole-cell patch clamp recording of spontaneous postsynaptic currents; type: cell-based, human; conditions: for EPSCs: 10-20 μM
Procedure: Whole-cell patch clamp recordings were performed from cells co-cultured with astrocytes after 6 weeks of differentiation. The bath was constantly perfused with fresh HEPES-buffered saline as described herein. The recording micropipettes (tip resistance 3-6 MΩ) were filled with internal solution described in the Supplemental materials. Recordings were made using Axopatch 200B amplifier (Axon Instruments). Signals were filtered at 2 kHz and sampled at 5 kHz. The whole-cell capacitance was fully compensated. The series resistance was uncompensated but monitored during the experiment by the amplitude of the capacitive current in response to a 10-mV pulse. All recordings were performed at room temperature and chemicals were purchased from Sigma. Frequency and amplitude of spontaneous postsynaptic currents were measured with the Mini Analysis Program software (Synaptosoft, Leonia, N.J.). Statistical comparisons of WT and RTT groups were made using the non-parametric Kolmogorov-Smirnov two-tailed test, with a significance criterion of p=0.05. EPSCs were blocked by CNQX or DNQX (10-20 μM) and IPSPs were inhibited by bicuculine (20 μM).

[1] = test system: iPSC-derived neuronal networks; experiment: Calcium imaging of spontaneous calcium transients in iPSC-derived neuronal networks; conditions: drug treatment, concentration not printed (FIG. 11A, 11C, 11D)
Procedure: Neuronal networks derived from human iPSCs were previously infected with the lentiviral vector carrying the Syn::DsRed reporter construct. Cell cultures were washed twice with sterile Krebs HepesHEPES Buffer (KHB) (10 mM HEPES, 4.2 mM NaHCO3, 10 mM dextrose, 1.18 mM MgSO4.2H2O, 1.18 mM KH2PO4, 4.69 mM KCl, 118 mM NaCl, 1.29 mM CaCl2; pH 7.3) and incubated with 0.2-0.5 μM Fluo-4AM (Molecular Probes/Invitrogen, Carlsbad, Calif.) in KHB for 40 minutes at room temperature. Excess dye was removed by washing twice with KHB and an additional 20-minute minutes incubation was done to equilibrate intracellular dye concentration and allow de-esterification. Time-lapse image sequences (200×100× magnification) of 5000 frames were acquired at 28 Hz with a region of 336×256 pixels, using a Hamamatsu ORCA-ER digital camera (Hamamatsu Photonics K.K., Hamamatsu City, Japan) with a 488 mm (FITC) filter on an Olympus IX81 inverted fluorescence confocal microscope (Olympus Optical, Tokyo, Japan). […]
ImageJ, an NIH funded open source, JAVA-based morphometric application, was used to allow manual selection of individual cells on the xy-plane of each movie using circles of 4 pixels (˜5 μm) in diameter. Each cell was considered as an individual region of interest (ROIs) and the average fluorescence intensity was calculated for each ROI in each frame using Time Series Analyzer ImageJ plugin. […]

WT neurons = experiment: VGLUT1 puncta (glutamatergic synapse) quantification in WT-iPSC-derived control neurons; type: cell-based, human; conditions: gentamicin 400 ug/ml, 1 week
Excerpt: Female RTT and control fibroblasts were generated from explants of dermal biopsies following informed consent under protocols approved by the University of California San Diego. The Syn::EGFP or DsRed reporter vector was obtained by cloning the Synapsin-1 promoter in a lentivirus backbone. The shRNA against a target sequence on the human MeCP2 gene was cloned in the LentiLox3.7 lentivirus vector. Retrovirus vectors containing the Oct4, c-Myc, Klf4 and Sox2 human cDNAs from Yamanaka's group (Takahashi et al., 2007, Id.) were obtained from Addgene. Two days after infection, fibroblasts were plated on mitotically inactivated mouse embryonic fibroblasts (Chemicon) with hESC medium. After 2 weeks, iPSC colonies were directly transferred to feeder-free conditions on matrigel-coated dishes (BD) using mTeSRTM1 (StemCell Technologies), and passed manually. […]
Cells were briefly fixed in 4% paraformaldehyde and then permeabilized with 0.5% Triton-X100 in PBS. […] Fluorescent signals were detected using a Zeiss inverted microscope and images were processed with Photoshop CS3 (Adobe Systems). […] For synapse quantification, images were taken by a z-step of 1 μm using Biorad radiance 2100 confocal microscope. Synapse quantification was done blinded to genotype. Only VGLUT1 puncta along Map2-positive processes were counted. […]

MeCP2 = MeCP2 protein level by Western blot in RTT neurons (Q244X); type: cell-based, human; conditions: gentamicin
RTT-derived neurons = experiment: VGLUT1 puncta (glutamatergic synapse) quantification in RTT-iPSC-derived neurons, rescue experiments; type: cell-based, human; conditions: for VGLUT1 puncta number / glutamatergic synapse number: RTT-derived neurons carrying different MeCP2 mutations, IGF1 10 μg/mL for 1 week

## N#Cc1cc2[nH]c(=O)c(=O)[nH]c2cc1[N+](=O)[O-] [CNQX]
iPSC-derived neurons
  EPSCs: blocked

## CN1CCc2cc3c(cc2[C@H]1[C@@H]1OC(=O)c2c1ccc1c2OCO1)OCO3 [bicuculine]
iPSC-derived neurons; 20 μM
  IPSPs: inhibited

## COc1ccc(-c2ccc(=N)n(CCCC(=O)O)n2)cc1 [Gabazine]
[1]
  intracellular calcium transients: increased

## O=[N+]([O-])c1cc2nc(O)c(O)nc2cc1[N+](=O)[O-] [DNQX]
iPSC-derived neurons
  EPSCs: blocked

## gentamicin
WT neurons
  number of VGLUT1 puncta in control neurons: lowered
MeCP2; RTT neurons (Q244X), after 2 weeks (FIG. 10E)
  WT MeCP2 protein levels: increased
MeCP2; RTT-Q244X clones 3 and 4 derived neurons, after 1 week
  MeCP2 protein levels: increase
RTT-derived neurons; RTT neurons, higher gentamicin dose 400 ug/ml, 1 week
  rescue of RTT neurons (VGLUT1 puncta): did not rescue
RTT-derived neurons; RTT-Q244X clones 3 and 4 derived neurons, lower gentamicin dose (100 ug/ml), 1 week
  glutamatergic synapse numbers (VGLUT1 puncta): increased; also recorded: rescuing; also recorded: rescue

## IGF1: IGF1 (Peprotech), candidate for pharmacological treatment of RTT
RTT-derived neurons
  VGLUT1 puncta number / glutamatergic synapse number: increased
RTT-derived neurons; listed as IFG1
  VGLUT1 puncta number / glutamatergic synapse number: above normal levels
